Laboratory results reported in ChEMBL document CHEMBL5620396, “Phenotypic screening identifies a trisubstituted imidazo[1,2-a]pyridine series that induces differentiation in multiple AML cell lines” (Eur J Med Chem, 2023).
The source made the active and inactive calls. The rule behind the calls is not given here.

Tests used:
[1] = AUC (0 to 8 hrs) in CD-1 mouse at 20 mg/kg, po administered as single dose and measured on day 1; format: ADME, organism-based; conditions: in vivo, time 1 day
[2] = Dose normalized AUC (0 to 8 hrs) in CD-1 mouse at 20 mg/kg, po administered as single dose and measured on day 1; format: ADME, organism-based; conditions: in vivo, 24 h, time 1 day
[3] = system: THP-1; experiment: Induction of differentiation in human THP-1 cells assessed as upregulation of CD11b response incubated for 4 days by flow cytometry analysis; conditions: THP-1, 96 h
[4] = system: OCI-AML-3; experiment: Induction of differentiation in human OCI-AML-3 cells assessed as upregulation of CD11b response incubated for 4 days by flow cytometry analysis; conditions: OCI-AML-3, 96 h
[5] = system: HL-60; experiment: Induction of morphological changes in human HL-60 cells assessed as variations in nuclear segmentation at 10 uM; format: functional, cell-based
[6] = system: HL-60; experiment: Induction of morphological changes in human HL-60 cells assessed as appearance of granules and vacuoles at 10 uM; format: functional, cell-based
[7] = Apparent permeability across apical to basolateral side in human Caco-2 cells; format: ADME, cell-based
[8] = system: HL-60; experiment: Induction of differentiation in human HL-60 cells assessed as reduction in live cell number at 123 nM incubated for 4 days by acridine orange/DAPI staining based analysis; format: functional; conditions: time 4.0 day
[9] = system: THP-1; experiment: Induction of differentiation in human THP-1 cells assessed as reduction in live cell number at 123 nM incubated for 4 days by acridine orange/DAPI staining based analysis; format: functional; conditions: time 4.0 day
[10] = system: OCI-AML-3; experiment: Induction of differentiation in human OCI-AML-3 cells assessed as reduction in live cell number at 123 nM incubated for 4 days by acridine orange/DAPI staining based analysis; format: functional; conditions: time 4.0 day
[11] = system: KG-1; experiment: Induction of differentiation in human KG-1 cells assessed as reduction in live cell number at 123 nM incubated for 4 days by acridine orange/DAPI staining based analysis; format: functional; conditions: time 4.0 day
[12] = system: ME-1; experiment: Induction of differentiation in human ME-1 cells assessed as reduction in live cell number at 123 nM incubated for 4 days by acridine orange/DAPI staining based analysis; format: functional; conditions: time 4.0 day
[13] = system: Kasumi 1; experiment: Induction of differentiation in human Kasumi 1 cells assessed as reduction in live cell number at 123 nM incubated for 4 days by acridine orange/DAPI staining based analysis; format: functional; conditions: time 4.0 day
[14] = system: HL-60; experiment: Induction of morphological changes in human HL-60 cells assessed as variations in cell size and shape at 10 uM; format: functional, cell-based
[15] = system: HL-60; experiment: Induction of morphological changes in human HL-60 cells assessed as variations in nuclear:cytoplasmic ratio at 10 uM; format: functional, cell-based
[16] = system: THP-1; experiment: Induction of morphological changes in human THP-1 cells assessed as variations in cell size and shape at 10 uM; format: functional, cell-based
[17] = system: THP-1; experiment: Induction of morphological changes in human THP-1 cells assessed as variations in nuclear segmentation at 10 uM; format: functional, cell-based
[18] = system: THP-1; experiment: Induction of morphological changes in human THP-1 cells assessed as variations in nuclear:cytoplasmic ratio at 10 uM; format: functional, cell-based
[19] = system: THP-1; experiment: Induction of morphological changes in human THP-1 cells assessed as appearance of granules and vacuoles at 10 uM; format: functional, cell-based
[20] = system: OCI-AML-3; experiment: Induction of morphological changes in human OCI-AML-3 cells assessed as variations in cell size and shape at 10 uM; format: functional, cell-based
[21] = system: OCI-AML-3; experiment: Induction of morphological changes in human OCI-AML-3 cells assessed as variations in nuclear segmentation at 10 uM; format: functional, cell-based
[22] = system: OCI-AML-3; experiment: Induction of morphological changes in human OCI-AML-3 cells assessed as appearance of granules and vacuoles at 10 uM; format: functional, cell-based
[23] = system: KG-1; experiment: Induction of morphological changes in human KG-1 cells assessed as variations in nuclear segmentation at 10 uM; format: functional, cell-based
[24] = system: KG-1; experiment: Induction of morphological changes in human KG-1 cells assessed as variations in nuclear:cytoplasmic ratio at 10 uM; format: functional, cell-based
[25] = system: ME-1; experiment: Induction of morphological changes in human ME-1 cells assessed as variations in nuclear segmentation at 10 uM; format: functional, cell-based
[26] = system: ME-1; experiment: Induction of morphological changes in human ME-1 cells assessed as variations in nuclear:cytoplasmic ratio at 10 uM; format: functional, cell-based
[27] = system: Kasumi 1; experiment: Induction of morphological changes in human Kasumi 1 cells assessed as variations in cell size and shape at 10 uM; format: functional, cell-based
[28] = system: Kasumi 1; experiment: Induction of morphological changes in human Kasumi 1 cells assessed as variations in nuclear:cytoplasmic ratio at 10 uM; format: functional, cell-based
[29] = system: Kasumi 1; experiment: Induction of morphological changes in human Kasumi 1 cells assessed as appearance of granules and vacuoles at 10 uM; format: functional, cell-based
[30] = Apparent volume of distribution during terminal phase in CD-1 mouse at 3 mg/kg, po administered as single dose and measured over 24 hrs; format: ADME, organism-based; conditions: in vivo, read-out: Vz/F
[31] = Oral bioavailability in CD-1 mouse at 3 mg/kg administered as single dose and measured over 24 hrs; format: ADME, organism-based; conditions: in vivo
[32] = Dose normalized AUC (0 to 8 hrs) in CD-1 mouse at 3 mg/kg, po administered as single dose and measured over 24 hrs; format: ADME, organism-based; conditions: in vivo
[33] = Cmax in CD-1 mouse at 3 mg/kg, po administered as single dose and measured over 24 hrs; format: ADME, organism-based; conditions: in vivo
[34] = Dose normalized Cmax in CD-1 mouse at 20 mg/kg, po administered as single dose and measured on day 1; format: ADME, organism-based; conditions: in vivo, 24 h, time 1 day
[35] = Half life in CD-1 mouse at 20 mg/kg, po administered as repeated dose on day 1 and 4; format: ADME, organism-based; conditions: in vivo, time 4 day
[36] = AUC (0 to 8 hrs) in CD-1 mouse at 20 mg/kg, po administered as repeated dose on day 1 and 4; format: ADME, organism-based; conditions: in vivo, time 4 day
[37] = Dose normalized AUC (0 to 8 hrs) in CD-1 mouse at 20 mg/kg, po administered as repeated dose on day 1 and 4; format: ADME, organism-based; conditions: in vivo, 96 h, time 4 day
[38] = Cmax in CD-1 mouse at 20 mg/kg, po administered as repeated dose on day 1 and 4; format: ADME, organism-based; conditions: in vivo, time 4 day
[39] = Dose normalized Cmax in CD-1 mouse at 20 mg/kg, po administered as repeated dose on day 1 and 4; format: ADME, organism-based; conditions: in vivo, 96 h, time 4 day
[40] = Dose normalized AUC (0 to 8 hrs) in CD-1 mouse at 1 mg/kg, po administered as single dose and measured on day 1; format: ADME, organism-based; conditions: in vivo, 24 h, time 1 day
[41] = Cmax in CD-1 mouse at 1 mg/kg, po administered as single dose and measured on day 1; format: ADME, organism-based; conditions: in vivo, time 1 day
[42] = Half life in CD-1 mouse at 1 mg/kg, po administered as repeated dose on day 1 and 4; format: ADME, organism-based; conditions: in vivo, time 4 day
[43] = Dose normalized AUC (0 to 8 hrs) in CD-1 mouse at 1 mg/kg, po administered as repeated dose on day 1 and 4; format: ADME, organism-based; conditions: in vivo, 96 h, time 4 day
[44] = Cmax in CD-1 mouse at 1 mg/kg, po administered as repeated dose on day 1 and 4; format: ADME, organism-based; conditions: in vivo, time 4 day
[45] = Dose normalized Cmax in CD-1 mouse at 1 mg/kg, po administered as repeated dose on day 1 and 4; format: ADME, organism-based; conditions: in vivo, 96 h, time 4 day
[46] = Toxicity in CD-1 mouse assessed as adverse effects at 3 mg/kg, po administered twice daily for 7 days; format: organism-based; conditions: in vivo, 168 h, time 7 day

Question: With `Cc1cc(F)ccc1-c1cc(NS(C)(=O)=O)c2ncc(-c3ccc4c(cnn4C)c3)n2c1` as the molecule, how does the AUC(0-t) at 24 h [1] read?
Answer: 4460 ng·h/mL

Question: And the AUC/dose [2]?
Answer: 223 ng·h/mL

Question: And the EC50 [3]?
Answer: 69 nM

Question: What about the EC50 [4] of the same molecule?
Answer: 25 nM

Question: And the Activity [5]?
Answer: Active

Question: And the Activity [6]?
Answer: Active

Question: What about the Papp A→B [7] of the same molecule?
Answer: 16 ×10⁻⁶ cm/s

Question: What about the Activity [8] of the same molecule?
Answer: Active

Question: And the Activity [9]?
Answer: Active

Question: And the Activity [10]?
Answer: Active

Question: What about the Activity [11] of the same molecule?
Answer: Active

Question: And the Activity [12]?
Answer: Active

Question: And the Activity [13]?
Answer: Active

Question: And the Activity [14]?
Answer: Active

Question: What about the Activity [15] of the same molecule?
Answer: Active

Question: What about the Activity [16] of the same molecule?
Answer: Active

Question: And the Activity [17]?
Answer: Active

Question: What about the Activity [18] of the same molecule?
Answer: Active

Question: And the Activity [19]?
Answer: Active

Question: What about the Activity [20] of the same molecule?
Answer: Active

Question: And the Activity [21]?
Answer: Active

Question: What about the Activity [22] of the same molecule?
Answer: Active

Question: What about the Activity [23] of the same molecule?
Answer: Active

Question: What about the Activity [24] of the same molecule?
Answer: Active

Question: What about the Activity [25] of the same molecule?
Answer: Active

Question: And the Activity [26]?
Answer: Active

Question: What about the Activity [27] of the same molecule?
Answer: Active

Question: What about the Activity [28] of the same molecule?
Answer: Active

Question: What about the Activity [29] of the same molecule?
Answer: Active

Question: And the Vd/F [30]?
Answer: 3.1 L/kg

Question: What about the bioavailability [31] of the same molecule?
Answer: 100%

Question: And the AUC/dose [32]?
Answer: 1021 ng·h/mL

Question: And the Cmax [33]?
Answer: 360 ng/mL

Question: What about the Cmax/dose [34] of the same molecule?
Answer: 34 ng/mL

Question: What about the half-life [35] of the same molecule?
Answer: 4.1 h

Question: And the AUC(0-t) at 96 h [36]?
Answer: 4370 ng·h/mL

Question: And the AUC/dose [37]?
Answer: 218 ng·h/mL

Question: What about the Cmax [38] of the same molecule?
Answer: 784 ng/mL

Question: What about the Cmax/dose [39] of the same molecule?
Answer: 39 ng/mL

Question: And the AUC/dose [40]?
Answer: 845 ng·h/mL

Question: And the Cmax [41]?
Answer: 187 ng/mL

Question: What about the half-life [42] of the same molecule?
Answer: 2.5 h

Question: What about the AUC/dose [43] of the same molecule?
Answer: 731 ng·h/mL

Question: What about the Cmax [44] of the same molecule?
Answer: 204 ng/mL

Question: What about the Cmax/dose [45] of the same molecule?
Answer: 204 ng/mL

Question: What about the Activity [46] of the same molecule?
Answer: Non-Toxic
